Series [1] can be described thus: Biosafety evaluation by serum biochemical tests. The class given is in vivo. The note with it: tumor-bearing mice, 48 h after last treatment.
Procedure: Tumor-bearing mice were treated as described above. Blood samples were taken from the orbital sinus of mice at 48 h after the final injection. The harvested samples were put at 37° C. to induce the clotting reaction and centrifuged for 15 min. The resultant serum samples were stored at −80° C. until further analysis. The functions of liver, kidney and heart were examined by detecting the serum levels of glutamate pyruvate transaminase (GPT), creatinine (CRE), and creatine kinase-MB (CK-MB) using the corresponding activity assay kits (Fujifilm, Tokyo, Japan) according to the manufacturer's instruction using a clinical dry chemistry analyzer (Fuji Dri-Chem 7000V, Fujifilm Corporation, Tokyo, Japan).
Data shown indicate the mean±SD of four experiments.
The next series deals with RBCs from rat. The series is described as follows: Hemolysis assay. The note with it: 37° C., 24 h, Triton X as positive control. It counts as cell-based. The protocol: 7×10^7 RBCs from rat were separated by centrifugation of whole blood. The supernatant containing plasma and platelets were removed. The pellets were washed by PBS until the supernatant was clear. Different formulations were diluted to a required concentration and added to the tubes containing 1 mL diluted RBCs. The cell suspension was mixed gently and incubated at 37° C. for 24 h. Triton X-100 was served as a positive control. Hemoglobin released from RBCs was measured spectrophotometrically. The concentration of the formed product was measured at 540 nm using an ELISA reader (TECAN, Mannedorf, Switzerland) to qualify the toxicity of liposomes to RBCs.

With `O=C1[O][Pt]2([NH][C@@H]3CCCC[C@H]3[NH]2)[O]C1=O` [Oxa, oxaliplatin], the “Serum levels of GPT or GOT, CRE, and CK-MB or LDH” value in series [1] is on record as “remarkably escalated”.
Triton X-100 returned a Hemolysis in the series on RBCs from rat of 100%.

The values above are taken from patent publication US11690803B2, “Tumor pH-shiftable coating and the nucleus-directed nanoparticles facilitate the targeted chemotherapy and gene therapy against multiple cancers and use thereof” (National Yang Ming Chiao Tung University, priority 2019, dated 2023).
